Assay results from patent publication US20240050428A1 (Cullgen (Shanghai), Inc., priority 2020, published 2024).
Where two headings read alike, the source gives them in different places.

Columns and labels:
MV4;11 cells = experiment: Cell viability assay (CellTiter-Glo) in MV4;11 cells, alone or with gilteritinib; assay type: cell-based; details: Homo sapiens, MV4-11, 72 h, MV4;11 cells, three days, CellTiter-Glo, read-out: MV4
MOLM-13 cells = experiment: Cell viability assay (CellTiter-Glo) in MOLM-13 cells, alone or with gilteritinib; assay type: cell-based; details: Homo sapiens, MOLM-13, 72 h, MOLM-13 cells, three days, CellTiter-Glo
[1] = compound alone (without gilteritinib), 11 IC50
[2] = with gilteritinib 10 nM, 11 IC50 gilteritinib
[3] = compound alone (without gilteritinib), read-out: MOLM-13 IC50
[4] = with gilteritinib 20 nM, read-out: MOLM-13 IC50 gilteritinib

| Structure (SMILES) | IC50 (MV4;11 cells; [1]) | IC50 (MV4;11 cells; [2]) | IC50 (MOLM-13 cells; [3]) | IC50 (MOLM-13 cells; [4]) |
| --- | --- | --- | --- | --- |
| O=C1CCC(N2Cc3cc(NCc4cccc(N5CCC(n6cc(-c7cnc8ccccc8n7)cn6)CC5)c4)ccc3C2=O)C(=O)N1 (stereo not shown) [GS-162, 3-(1-Oxo-5-((3-(4-(4-(quinoxalin-2-yl)-1H-pyrazol-1-yl)piperidin-1-yl)benzyl)amino)isoindolin-2-yl)piperidine-2,6-dione] | > 1000 nM | > 1000 nM | > 1000 nM | 10 to 100 nM |
| N#Cc1ccc2ncc(-c3cnn(CCCCCCNc4ccc5c(c4)C(=O)N(C4CCC(=O)NC4=O)C5=O)c3)nc2c1 (stereo not shown) [GS-163, 3-(1-(6-((2-(2,6-Dioxopiperidin-3-yl)-1,3-dioxoisoindolin-5-yl)amino)hexyl)-1H-pyrazol-4-yl)quinoxaline-6-carbonitrile] | 100 to 1000 nM | 10 to 100 nM | 100 to 1000 nM | < 10 nM |
| O=C1CCC(N2C(=O)c3ccc(NCCCC4CC(n5cc(-c6cnc7cccc(F)c7n6)cn5)C4)cc3C2=O)C(=O)N1 (stereo not shown) [GS-164, 2-(2,6-Dioxopiperidin-3-yl)-5-((3-(3-(4-(8-fluoroquinoxalin-2-yl)-1H-pyrazol-1-yl)cyclobutyl)propyl)amino)isoindoline-1,3-dione] | 100 to 1000 nM | 10 to 100 nM | 100 to 1000 nM | 10 to 100 nM |
| N#Cc1cccc2ncc(-c3cnn(CCCCCCNc4ccc5c(c4)C(=O)N(C4CCC(=O)NC4=O)C5=O)c3)nc12 (stereo not shown) [GS-165, 3-(1-(6-((2-(2,6-Dioxopiperidin-3-yl)-1,3-dioxoisoindolin-5-yl)amino)hexyl)-1H-pyrazol-4-yl)quinoxaline-5-carbonitrile] | 100 to 1000 nM | 10 to 100 nM | 100 to 1000 nM | 10 to 100 nM |
| Cc1nn(CCCCCCNc2ccc3c(c2)C(=O)N(C2CCC(=O)NC2=O)C3=O)c(C)c1-c1cnc2cccc(C#N)c2n1 (stereo not shown) [GS-166, 3-(1-(6-((2-(2,6-Dioxopiperidin-3-yl)-1,3-dioxoisoindolin-5-yl)amino)hexyl)-3,5-dimethyl-1H-pyrazol-4-yl)quinoxaline-5-carbonitrile] | 10 to 100 nM | < 10 nM | 10 to 100 nM | < 10 nM |
| Cc1nn(C2CC(CCCNc3ccc4c(c3)C(=O)N(C3CCC(=O)NC3=O)C4=O)C2)c(C)c1-c1cnc2ccccc2n1 (stereo not shown) [GS-167, 5-((3-(3-(3,5-Dimethyl-4-(quinoxalin-2-yl)-1H-pyrazol-1-yl)cyclobutyl)propyl)amino)-2-(2,6-dioxopiperidin-3-yl)isoindoline-1,3-dione] | > 1000 nM | 100 to 1000 nM | > 1000 nM | < 10 nM |
| Cc1nn([C@H]2C[C@@H](CCCNc3ccc4c(c3)C(=O)N(C3CCC(=O)NC3=O)C4=O)C2)cc1-c1cnc2ccccc2n1 (stereo partly drawn) [GS-168, 2-(2,6-Dioxopiperidin-3-yl)-5-((3-(cis-3-(3-methyl-4-(quinoxalin-2-yl)-1H-pyrazol-1-yl)cyclobutyl)propyl)amino)isoindoline-1,3-dione] | 100 to 1000 nM | 10 to 100 nM | > 1000 nM | 10 to 100 nM |
| Cc1c(-c2cnc3ccccc3n2)cnn1[C@H]1C[C@@H](CCCNc2ccc3c(c2)C(=O)N(C2CCC(=O)NC2=O)C3=O)C1 (stereo partly drawn) [GS-169, 2-(2,6-Dioxopiperidin-3-yl)-5-((3-(cis-3-(5-methyl-4-(quinoxalin-2-yl)-1H-pyrazol-1-yl)cyclobutyl)propyl)amino)isoindoline-1,3-dione] | 100 to 1000 nM | > 1000 nM | > 1000 nM | 10 to 100 nM |
| Cc1c(-c2cnc3ccccc3n2)cnn1[C@H]1C[C@H](CCCNc2ccc3c(c2)C(=O)N(C2CCC(=O)NC2=O)C3=O)C1 (stereo partly drawn) [GS-170, 2-(2,6-Dioxopiperidin-3-yl)-5-((3-(trans-3-(5-methyl-4-(quinoxalin-2-yl)-1H-pyrazol-1-yl)cyclobutyl)propyl)amino)isoindoline-1,3-dione] | > 1000 nM | 10 to 100 nM | > 1000 nM | 10 to 100 nM |
| Cc1nn([C@H]2C[C@H](CCCNc3ccc4c(c3)C(=O)N(C3CCC(=O)NC3=O)C4=O)C2)cc1-c1cnc2ccccc2n1 (stereo partly drawn) [GS-171, 2-(2,6-Dioxopiperidin-3-yl)-5-((3-(trans-3-(3-methyl-4-(quinoxalin-2-yl)-1H-pyrazol-1-yl)cyclobutyl)propyl)amino)isoindoline-1,3-dione] | 10 to 100 nM | < 10 nM | 10 to 100 nM | < 10 nM |
| CN1CCN(c2ccc3ncc(-c4cnn(C5CC(CCCNc6ccc7c(c6)C(=O)N(C6CCC(=O)NC6=O)C7=O)C5)c4)nc3c2)CC1 (stereo not shown) [GS-172, 2-(2,6-Dioxopiperidin-3-yl)-5-((3-(3-(4-(7-(4-methylpiperazin-1-yl)quinoxalin-2-yl)-1H-pyrazol-1-yl)cyclobutyl)propyl)amino)isoindoline-1,3-dione] | 100 to 1000 nM | > 1000 nM | > 1000 nM | 100 to 1000 nM |
| O=C1CCC(N2C(=O)c3ccc(NCCCC4CC(n5cc(-c6cnc7ccc(N8CCOCC8)cc7n6)cn5)C4)cc3C2=O)C(=O)N1 (stereo not shown) [GS-173, 2-(2,6-Dioxopiperidin-3-yl)-5-((3-(3-(4-(7-morpholinoquinoxalin-2-yl)-1H-pyrazol-1-yl)cyclobutyl)propyl)amino)isoindoline-1,3-dione] | 10 to 100 nM | 10 to 100 nM | 10 to 100 nM | < 10 nM |
| O=C1CCC(N2C(=O)c3ccc(NCCCC4CC(n5cc(-c6cnc7ccc(N8CCNCC8)cc7n6)cn5)C4)cc3C2=O)C(=O)N1 (stereo not shown) [GS-174, 2-(2,6-Dioxopiperidin-3-yl)-5-((3-(3-(4-(7-(piperazin-1-yl)quinoxalin-2-yl)-1H-pyrazol-1-yl)cyclobutyl)propyl)amino)isoindoline-1,3-dione] | 100 to 1000 nM | 10 to 100 nM | > 1000 nM | < 10 nM |
| N#Cc1ccc2ncc(-c3cnn(C4CC(CCCNc5ccc6c(c5)C(=O)N(C5CCC(=O)NC5=O)C6=O)C4)c3)nc2c1 (stereo not shown) [GS-175, 3-(1-(3-(3-((2-(2,6-Dioxopiperidin-3-yl)-1,3-dioxoisoindolin-5-yl)amino)propyl)cyclobutyl)-1H-pyrazol-4-yl)quinoxaline-6-carbonitrile] | 100 to 1000 nM | 10 to 100 nM | 100 to 1000 nM | < 10 nM |
| O=C1CCC(N2C(=O)c3ccc(NCCC[C@H]4C[C@H](n5cc(-c6cnc7ccccc7n6)cn5)C4)cc3C2=O)C(=O)N1 (stereo partly drawn) [GS-176, 2-(2,6-Dioxopiperidin-3-yl)-5-((3-(trans-3-(4-(quinoxalin-2-yl)-1H-pyrazol-1-yl)cyclobutyl)propyl)amino)isoindoline-1,3-dione] | 100 to 1000 nM | 10 to 100 nM | 100 to 1000 nM | 10 to 100 nM |
| O=C1CCC(N2C(=O)c3ccc(NCCC[C@H]4C[C@@H](n5cc(-c6cnc7ccccc7n6)cn5)C4)cc3C2=O)C(=O)N1 (stereo partly drawn) [GS-177, 2-(2,6-Dioxopiperidin-3-yl)-5-((3-(cis-3-(4-(quinoxalin-2-yl)-1H-pyrazol-1-yl)cyclobutyl)propyl)amino)isoindoline-1,3-dione] | > 1000 nM | 100 to 1000 nM | > 1000 nM | 10 to 100 nM |
| O=C1CCC(N2C(=O)c3ccc(NC[C@H]4C[C@H](n5cc(-c6cnc7ccccc7n6)cn5)C4)cc3C2=O)C(=O)N1 (stereo partly drawn) [GS-178, 2-(2,6-Dioxopiperidin-3-yl)-5-(((trans-3-(4-(quinoxalin-2-yl)-1H-pyrazol-1-yl)cyclobutyl)methyl)amino)isoindoline-1,3-dione] | 10 to 100 nM | 10 to 100 nM | 100 to 1000 nM | 10 to 100 nM |
| O=C1CCC(N2C(=O)c3ccc(NC[C@H]4C[C@@H](n5cc(-c6cnc7ccccc7n6)cn5)C4)cc3C2=O)C(=O)N1 (stereo partly drawn) [GS-179, 2-(2,6-Dioxopiperidin-3-yl)-5-(((cis-3-(4-(quinoxalin-2-yl)-1H-pyrazol-1-yl)cyclobutyl)methyl)amino)isoindoline-1,3-dione] | > 1000 nM | > 1000 nM | > 1000 nM | 100 to 1000 nM |
| O=C1CCC(N2C(=O)c3ccc(NC[C@H]4C[C@H](n5cc(-c6cnc7ccc(C8CCOCC8)cc7n6)cn5)C4)cc3C2=O)C(=O)N1 (stereo partly drawn) [GS-180, 2-(2,6-Dioxopiperidin-3-yl)-5-(((trans-3-(4-(7-(tetrahydro-2H-pyran-4-yl)quinoxalin-2-yl)-1H-pyrazol-1-yl)cyclobutyl)methyl)amino)isoindoline-1,3-dione] | 100 to 1000 nM | 10 to 100 nM | 100 to 1000 nM | 10 to 100 nM |
| O=C1CCC(N2C(=O)c3ccc(NCCC[C@H]4C[C@H](n5cc(-c6cnc7ccc(C8CCOCC8)cc7n6)cn5)C4)cc3C2=O)C(=O)N1 (stereo partly drawn) [GS-181, 2-(2,6-Dioxopiperidin-3-yl)-5-((3-(trans-3-(4-(7-(tetrahydro-2H-pyran-4-yl)quinoxalin-2-yl)-1H-pyrazol-1-yl)cyclobutyl)propyl)amino)isoindoline-1,3-dione] | 10 to 100 nM | < 10 nM | 10 to 100 nM | < 10 nM |
| O=C1CCC(N2C(=O)c3ccc(NCCC[C@H]4C[C@@H](n5cc(-c6cnc7ccc(C8CCOCC8)cc7n6)cn5)C4)cc3C2=O)C(=O)N1 (stereo partly drawn) [GS-182, 2-(2,6-Dioxopiperidin-3-yl)-5-((3-(cis-3-(4-(7-(tetrahydro-2H-pyran-4-yl)quinoxalin-2-yl)-1H-pyrazol-1-yl)cyclobutyl)propyl)amino)isoindoline-1,3-dione] | 100 to 1000 nM | 10 to 100 nM | 100 to 1000 nM | < 10 nM |
| O=C1CCC(N2C(=O)c3ccc(NC4CCC(CCn5cc(-c6cnc7ccccc7n6)cn5)CC4)cc3C2=O)C(=O)N1 (stereo not shown) [GS-183, 2-(2,6-Dioxopiperidin-3-yl)-5-((4-(2-(4-(quinoxalin-2-yl)-1H-pyrazol-1-yl)ethyl)cyclohexyl)amino)isoindoline-1,3-dione] | 100 to 1000 nM | 100 to 1000 nM | > 1000 nM | 100 to 1000 nM |
